Reference: patent US20020094522A1, “Means and methods for monitoring non-nucleoside reverse transcriptase inhibitor antiretroviral therapy and guiding therapeutic decisions in the treatment of HIV/AIDS” (priority 2000, published 2002)

Assays:
Assay type in all cases: cell-based, HIV-1
V106A-F227-RTV = assay: Phenotypic susceptibility assay, V106A-F227-RTV; conditions: site directed mutant
Text: (§1) The resistance test vectors containing a functional luciferase gene cassette were constructed and host cells were transfected with the resistance test vector DNA. The resistant test vectors contained patient-derived reverse transcriptase and protease sequences that were either susceptible or resistant to the antiretroviral agents, such as nucleoside reverse transcriptase inhibitors, non-nucleoside reverse transcriptase inhibitors and protease inhibitors. The resistance test vector viral particles produced by transfecting the resistance test vector DNA into host cells, either in the presence or absence of protease inhibitors, were used to infect target host cells grown either in the absence of NRTI or NNRTI or in the presence of increasing concentrations of the drug. The amount of luciferase activity produced in infected target host cells in the presence of drug was compared to the amount of luciferase produced in infected target host cells in the absence of drug. Drug resistance was measured as the amount of drug required to inhibit by 50% the luciferase activity detected in the absence of drug (inhibitory concentration 50%, IC50). The IC50 values were determined by plotting percent drug inhibition vs. log10 drug concentration.
(§2) Host cells were seeded in 10-cm-diameter dishes and were transfected several days after plating with resistance test vector plasmid DNA and the envelope expression vector. Transfections were performed using a calcium-phosphate precipitation procedure. The cell culture media containing the DNA precipitate was replaced with fresh medium, from one to 24 hours, after transfection. Cell culture media containing resistance test vector viral particles was harvested one to four days after transfection and was passed through a […] filter before being stored at −80° C. HIV capsid protein (p24) levels in the harvested cell culture media were determined by an EIA method as described by the manufacturer (SIAC; Frederick, Md.). […] The inhibitory effect of the drug was determined using the following equation: […]

[1] = test system: P236L-RTV (HIV reverse transcriptase P236L); assay: Phenotypic susceptibility assay, P236L-RTV; conditions: P236L mutation alone
Procedure: (§3) Transfections were performed using a calcium-phosphate precipitation procedure. […] Cell lysates were assayed for luciferase activity (FIG. 3).
(§4) The drug inhibition curves are shown in (FIG. 3).
Resistance test vectors were constructed containing the P236L mutation alone and in combination with other known drug resistance mutations (K103N, Y181C) that are known to modulate the susceptibility of HIV-1 to NNRTIs. […] The P236L mutation was also introduced into a RTV containing mutations at K103N, Y181C or both (K103N+Y181C).

[2] = test system: E138A-RTV (HIV reverse transcriptase E138A); assay: Phenotypic susceptibility assay, E138A-RTV; conditions: site directed mutant
Text: as §1, with “Drug resistance was measured as the amount of drug required to inhibit by 50% the luciferase activity detected in the absence of drug (inhibitory concentration 50%, IC50).” left out
(§5) Host cells were seeded in 10-cm-diameter dishes and were transfected several days after plating with resistance test vector plasmid DNA and the envelope expression vector. […] HIV capsid protein (p24) levels in the harvested cell culture media were determined by an EIA method as described by the manufacturer (SIAC; Frederick, Md.). […] The inhibitory effect of the drug was determined using the following equation: […]
The E138A mutation alone and in combination with Y188L was introduced into resistance test vectors using the megaprimer method for site-directed mutagenesis (Sakar and Sommar, Ibid.). Resistance test vectors containing the E138A mutation (E138A-RTV) or the E138 mutation along with the […] mutation (E138A-Y188L-RTV) were then tested using the phenotypic assay described earlier and the results were compared to those determined using a genetically defined resistance test vector that was wild type at positions 188 and 138.

A98G-G190S-RTV = assay: Phenotypic susceptibility assay, A98G-G190S-RTV; conditions: values <1 = increased susceptibility
Text: as §1, §2

[3] = test system: G190S-RTV (HIV reverse transcriptase G190S); assay: Phenotypic susceptibility assay, G190S-RTV; conditions: for change in susceptibility compared to wild type reference RTV: Example 5; for fold change in susceptibility compared to wild type control RTV: values <1 = increased susceptibility
Text: as §1
as §2, with “Md.). Before infection, target cells (293 and 293/T) were plated in cell culture media. Control infections were performed using cell culture media from mock transfections (no DNA) or transfections containing the resistance test vector plasmid DNA without the envelope expression plasmid. One to three or more days after infection the media was removed and cell lysis buffer (Promega) was added to each well.” for “Md.).”
where RLUluc [drug] is the relative light unit of luciferase activity in infected cells in the presence of drug and RLUluc is the Relative Light Unit of luciferase activity in infected cells in the absence of drug. IC50 values were obtained from the sigmoidal curves that were generated from the data by plotting the percent inhibition of luciferase activity vs. the log10 drug concentration.

[4] = test system: V189L-RTV (HIV reverse transcriptase V189L); assay: Phenotypic susceptibility assay, V189L-RTV; conditions: V189-RTV (V189L), site directed mutant
Text: as §1, §2

[5] = test system: RTV-1058 Clone 4 (K103N and Y188L); assay: Phenotypic susceptibility assay, RTV-1058 clone 4
Procedure: The resistance test vectors containing a functional luciferase gene cassette were constructed and host cells were transfected with the resistance test vector DNA. The resistant test vectors contained patient-derived reverse transcriptase and protease sequences that were either susceptible or resistant to the antiretroviral agents, such as nucleoside reverse transcriptase inhibitors, non-nucleoside reverse transcriptase inhibitors and protease inhibitors. […] The IC50 values were determined by plotting percent drug inhibition vs. log10 drug concentration.
as §5
A resistance test vector was constructed as described in Example 1 from a patient sample designated 98-1058. […] An IC50 was determined for the resistance test vector pool for each drug tested.

[6] = test system: RTV-1033 (patient sample 98-1033); assay: Phenotypic susceptibility assay, RTV-1033; conditions: RTV-1033, patient-derived pool
Procedure: as §3, §4
A resistance test vector was constructed as described in Example 1 from a patient sample designated 98-1033. […] Isolation of viral RNA and RT/PCR was used to generate a patient derived segment that comprised viral sequences coding for all of PR and aa 1-313 of RT. The PDS was inserted into an indicator gene viral vector to generate resistance test vectors designated RTV-1033 and RTV-757. RTV-1033 and RTV-757 were then tested in a phenotypic assay to determine accurately and quantitatively the level of susceptibility to a panel of anti-retroviral drugs. […] An IC50 was determined for the resistance test vector pool for each drug tested. The pattern of susceptibility to all of the drugs tested was examined and compared to known patterns of susceptibility.

Row | SMILES | fold loss of susceptibility compared to wild type control RTV (V106A-F227-RTV) | change in susceptibility compared to wild type reference RTV [1] | fold change in susceptibility compared to wild type control RTV [2] | fold change in susceptibility compared to wild type control RTV (A98G-G190S-RTV) | change in susceptibility compared to wild type reference RTV [3] | fold change in susceptibility compared to wild type control RTV [3] | fold change in susceptibility compared to wild type control RTV [4] | fold loss of susceptibility (IC50) [5] | fold decrease in susceptibility (IC50) [6]
1 | Cc1ccnc2c1NC(=O)c1cccnc1N2C1CC1 [nevirapine] | greater than 800 fold | no significant change in nevirapine susceptibility | 1.3 fold | greater than 800 fold | markedly less susceptible to nevirapine | 75 fold | 1.3 fold | greater than 800 fold | greater than 800 fold
2 | CC(C)Nc1cccnc1N1CCN(C(=O)c2cc3cc(NS(C)(=O)=O)ccc3[nH]2)CC1 [delavirdine] | 3 fold | less susceptible to delavirdine than a wild type reference RTV | 1.6 fold | 0.8 fold | slightly more susceptible to delavirdine | 0.5 fold | 1.8 fold | 85 fold | 30 fold
3 | O=C1Nc2ccc(Cl)cc2[C@@](C#CC2CC2)(C(F)(F)F)O1 [efavirenz] | 8 fold | – | 1.4 fold | greater than 250 fold | – | 8 fold | 1.3 fold | – | 200 fold
